Data set [1] can be described thus: Test 3-2: metabolic stability test of human liver microsome. The format is in vitro ADME. As to conditions: human liver microsome 0.5 or 1.0 mg/mL, test compound 0.1 μmol/L, 37° C., 30 minutes. How it is done:
Test 3-2: Metabolic Stability Test of Human Liver Microsome
In order to evaluate the metabolic stability of human liver microsomes more precisely, the stability of the present compounds for human liver microsome metabolism was evaluated with a suitable concentration of human liver microsome, as mentioned below. The used human liver microsome was obtained from Xenontech. Human liver microsome, NADPH, and each test compound were mixed in 25 mmol/L phosphate buffer solution (pH 7.4) to adjust each concentration as shown below, and the mixture was incubated at 37° C. for 30 minutes. • human liver microsome: 0.5 or 1.0 mg/mL • NAPDH: 3.2 mmol/L • test compound: 0.1 μmol/L
(§1) The residual ratio of the test compound in each sample after the incubation for 30 minutes was measured with a LC-MS, and the metabolic stability of human liver microsome was calculated about each test compound with the following formula. Metabolic stability of human liver microsome(mL/min/mg protein)=−LN(residual ratio)/“reaction time”/“concentration of human liver microsome”
(In general: Liver microsomes are vesicles of endoplasmic reticulum, rich in cytochrome P450 enzymes.)

In a further data set the test system is Wistar male rat. Kind of data set: Test 9: microdialysis test (intracerebral monoamine release). As to conditions: in the combination administration with sertraline or in single administration. The format is in vivo. The procedure: Test 9: Microdialysis Test
The effect of the present compound for the release amount of intracerebral monoamine was evaluated in a manner mentioned below.
8-Week-old Wistar male rat was fixed on a brain stereotaxic apparatus under anesthesia. The scalp was incised, the subcutaneous tissue was removed, the position of the bregma was measured, and the installation position of a guide cannula was calculated (the position of the orbitofrontal cortex which defined according to the brain stereotaxic coordinates of Paxinos & Watson (2.0 mm right, 4.2 mm anterior from bregma)). The skull was drilled with a dental drill at the installation position of the guide cannula, and an anchor screw was set about 1 cm posterior to the hole. The guide cannula was set and fixed with a dental cement, and then the scalp was sutured. The animal was released from the brain stereotaxic apparatus, and was moved back to the breeding cage. In the event of the test, the rat was put in an acrylic observable cage, and a dialysis probe was inserted along the guide cannula to connect to a free-moving tube. With an infusion pump, Ringer solution was perfused at 2 μL/min, and the dialysis solution was recovered at 20-minute intervals. […] The recovered dialysis solutions were analyzed with a HPLC-ECD system to determine the contents of norepinephrine (NE), dopamine (DA), and serotonin (5-HT).

Data set [2] concerns the target T1, human 5-HT1A receptor (Homo sapiens (Human), UniProt P08908). Kind of data set: Test 1: agonistic activity for human 5-HT1A receptor (aequorin luminescence, CHO-K1). The format is cell-based. As to conditions: for EC50: CHO-K1 cell transiently expressing aequorin, Ga16 and receptor. How it is done: (§2) Test 1: Evaluation of Agonistic Activity for Human 5-HT1A Receptor and Human D4 Receptor
(§3) Aequorin, Ga16 proteins, and each receptor were transiently expressed in CHO-K1 cell (Chinese hamster ovary), and seeded to 384-well plate. The plate was incubated in a CO2 incubator at 37° C. for 24 hours. Each example compound dissolved in DMSO was added thereto, and the change of luminescence amount was measured with Hamamatsu FDSS/μCELL System (Hamamatsu Photonics).

Data set [3] addresses T2, human D4 receptor (Homo sapiens (Human), UniProt P21917). Kind of data set: Test 1: agonistic activity for human D4 receptor (aequorin luminescence, CHO-K1). As to conditions: for EC50: CHO-K1 cell transiently expressing aequorin, Ga16 and receptor. Format: cell-based. The procedure:
as §2, §3

Data set [4] concerns the target T1, human 5-HT1A receptor. Kind of data set: Test 2: binding activity to human 5-HT1A receptor ([3H] 8-OH-DPAT). As to conditions: CHO cell membrane fraction, read-out: 5-HT1A binding affinity (Ki value). How it is done: (§4) Test 2: Evaluation of Binding Activity to Human 5-HT1A Receptor, Human D4 Receptor, and Human D2 Receptor
(§5) CHO cell membrane fraction in which human 5-HT1A receptor, human D4 receptor, and human D2 receptor were expressed was purchased from PerkinElmer Co., Ltd. In the evaluation test of binding, the test compound dissolved in DMSO, each receptor membrane preparation diluted with buffer solution, and [3H] […] The nonspecific binding to each receptor was evaluated by a competition binding experiment in the presence of 10 μmol/L 8-OH-DPAT, 10 μmol/L dopamine, or 10 μmol/L spiperone, respectively.

The target in data set [5] is T2, human D4 receptor. Kind of data set: Test 2: binding activity to human D4 receptor ([3H] dopamine). As to conditions: CHO cell membrane fraction, read-out: D4 binding affinity (Ki value). The procedure: as §4, §5
Another data set deals with human D2 receptor (Homo sapiens (Human), UniProt P14416). Kind of data set: Test 2: binding activity to human D2 receptor ([3H] spiperone). As to conditions: CHO cell membrane fraction, read-out: D2 binding affinity (Ki value). The procedure:
as §4, §5

A short description of data set [6]: Test 3-1: metabolic stability test of human liver microsome. Format: in vitro ADME. As to conditions: human liver microsome 0.1 mg/mL, test compound 0.1 μmol/L, 37° C., 30 minutes. How it is done:
Test 3-1: Metabolic Stability Test of Human Liver Microsome
The stability of the present compounds for human liver microsome metabolism was evaluated as mentioned below. The used human liver microsome was obtained from Xenontech. Human liver microsome, NADPH, and each test compound were mixed in 25 mmol/L phosphate buffer solution (pH 7.4) to adjust each concentration as shown below, and the mixture was incubated at 37° C. for 30 minutes. • human liver microsome: 0.1 mg/mL • NAPDH: 3.2 mmol/L • test compound: 0.1 μmol/L
as §1

The target of the next data set is hERG channel (Homo sapiens (Human), UniProt Q12809). Kind of data set: Test 5-2: activity for inhibiting hERG channel (whole-cell patch clamp, Qube). The format is cell-based. As to conditions: hERG-CHO cell, auto patch clamp, read-out: hERG inhibition IC50. How it is done:
Test 5-2: Evaluation of Activity for Inhibiting hERG Channel
The activity of the present compound for inhibiting hERG channel was measured by whole-cell patch clamp method with auto patch clamp system, using CHO cell wherein hERG channel involved in human rapidly activating delayed rectifier potassium current (IKr) was forcibly expressed.
hERG-CHO cell purchased from ChanTest was incubated at 37° C. in a CO2 incubator, and the cell was exfoliated from the flask with trypsin to prepare a cell suspension, shortly before the hERG current measurement.
Extracellular fluid: 2 mmol/L CaCl2, 1 mmol/L MgCl2, 10 mmol/L HEPES, 4 mmol/L KCl, 145 mmol/L NaCl, 10 mmol/L glucose
Intracellular fluid: 10 mmol/L HEPES, 10 mmol/L EGTA, 20 mmol/L KCl, 130 mmol/L KF […]
The cell suspension, the extracellular fluid, the intracellular fluid, and the measurement plate were set in an auto patch clamp system, and the hERG current was measured by whole-cell patch clamp method. […] The test was carried out applying increscently 4 concentrations of each test compound, and the average of the peak tail currents that were obtained by the last 3 stimulations in each applied concentration was made to be the evaluated data. By using the current inhibition rate for the pre-applied current at each concentration of each test compound, IC50 value was calculated by Hill equation with the software.
For orientation: hERG is a cardiac potassium channel; its block is linked to QT prolongation.

Setting [7] is: CHO-K1, 100% = 10 μmol/L endogenous ligand.
Where [8] appears, read: 100% = 10 μmol/L endogenous ligand.

T2 sequence (P21917 whole entry): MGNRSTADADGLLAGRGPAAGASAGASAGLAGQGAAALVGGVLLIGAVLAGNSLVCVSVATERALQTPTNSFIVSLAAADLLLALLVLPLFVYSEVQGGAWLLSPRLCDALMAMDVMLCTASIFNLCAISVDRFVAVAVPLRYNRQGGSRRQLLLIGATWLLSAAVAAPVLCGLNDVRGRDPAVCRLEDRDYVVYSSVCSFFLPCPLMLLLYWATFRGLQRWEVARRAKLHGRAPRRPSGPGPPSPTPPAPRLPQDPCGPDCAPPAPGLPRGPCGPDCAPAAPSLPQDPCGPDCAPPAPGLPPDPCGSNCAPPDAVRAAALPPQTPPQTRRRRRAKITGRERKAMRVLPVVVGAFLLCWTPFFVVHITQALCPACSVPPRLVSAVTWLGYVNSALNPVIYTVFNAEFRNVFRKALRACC
T1 sequence (P08908 whole entry): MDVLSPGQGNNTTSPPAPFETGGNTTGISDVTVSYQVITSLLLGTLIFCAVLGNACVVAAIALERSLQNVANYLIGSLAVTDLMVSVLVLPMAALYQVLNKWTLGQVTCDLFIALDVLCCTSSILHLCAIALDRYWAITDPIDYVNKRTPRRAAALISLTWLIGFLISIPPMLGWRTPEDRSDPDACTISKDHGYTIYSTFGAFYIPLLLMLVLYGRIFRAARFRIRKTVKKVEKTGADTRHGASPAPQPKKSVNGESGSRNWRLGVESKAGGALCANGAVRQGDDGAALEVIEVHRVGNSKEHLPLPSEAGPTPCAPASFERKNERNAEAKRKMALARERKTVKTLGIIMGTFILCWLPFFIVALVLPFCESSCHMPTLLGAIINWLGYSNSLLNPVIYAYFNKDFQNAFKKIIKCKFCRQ
Sequence of hERG channel (Q12809 whole entry): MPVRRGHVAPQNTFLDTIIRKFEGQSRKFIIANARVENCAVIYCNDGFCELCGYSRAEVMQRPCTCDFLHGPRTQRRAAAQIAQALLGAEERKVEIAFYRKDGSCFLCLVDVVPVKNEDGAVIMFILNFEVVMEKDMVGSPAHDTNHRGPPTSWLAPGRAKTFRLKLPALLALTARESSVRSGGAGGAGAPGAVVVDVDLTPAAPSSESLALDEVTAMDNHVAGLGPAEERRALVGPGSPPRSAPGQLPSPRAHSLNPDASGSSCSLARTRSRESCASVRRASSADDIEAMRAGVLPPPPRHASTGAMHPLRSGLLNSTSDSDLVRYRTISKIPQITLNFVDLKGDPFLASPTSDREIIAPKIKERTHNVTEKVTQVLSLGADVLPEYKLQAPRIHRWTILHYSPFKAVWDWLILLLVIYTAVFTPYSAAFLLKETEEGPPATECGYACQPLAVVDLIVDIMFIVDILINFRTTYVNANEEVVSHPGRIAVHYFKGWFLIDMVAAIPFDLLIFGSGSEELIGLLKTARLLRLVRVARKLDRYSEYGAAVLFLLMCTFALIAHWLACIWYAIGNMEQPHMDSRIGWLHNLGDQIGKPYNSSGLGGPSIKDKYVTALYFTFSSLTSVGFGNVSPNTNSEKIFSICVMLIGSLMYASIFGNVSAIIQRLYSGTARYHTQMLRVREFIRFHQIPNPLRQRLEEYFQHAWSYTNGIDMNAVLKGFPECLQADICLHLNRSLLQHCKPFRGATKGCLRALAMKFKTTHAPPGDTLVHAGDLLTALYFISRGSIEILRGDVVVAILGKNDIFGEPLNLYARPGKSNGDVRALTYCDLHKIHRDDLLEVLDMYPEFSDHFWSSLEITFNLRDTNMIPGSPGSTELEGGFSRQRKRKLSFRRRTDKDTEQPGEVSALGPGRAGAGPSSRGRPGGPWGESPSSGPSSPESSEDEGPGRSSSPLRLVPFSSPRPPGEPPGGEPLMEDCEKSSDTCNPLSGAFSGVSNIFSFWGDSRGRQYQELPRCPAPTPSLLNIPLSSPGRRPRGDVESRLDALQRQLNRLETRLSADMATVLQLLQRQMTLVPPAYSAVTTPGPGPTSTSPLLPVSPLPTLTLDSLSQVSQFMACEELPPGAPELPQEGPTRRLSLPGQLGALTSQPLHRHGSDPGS
Sequence of human D2 receptor (P14416 whole entry): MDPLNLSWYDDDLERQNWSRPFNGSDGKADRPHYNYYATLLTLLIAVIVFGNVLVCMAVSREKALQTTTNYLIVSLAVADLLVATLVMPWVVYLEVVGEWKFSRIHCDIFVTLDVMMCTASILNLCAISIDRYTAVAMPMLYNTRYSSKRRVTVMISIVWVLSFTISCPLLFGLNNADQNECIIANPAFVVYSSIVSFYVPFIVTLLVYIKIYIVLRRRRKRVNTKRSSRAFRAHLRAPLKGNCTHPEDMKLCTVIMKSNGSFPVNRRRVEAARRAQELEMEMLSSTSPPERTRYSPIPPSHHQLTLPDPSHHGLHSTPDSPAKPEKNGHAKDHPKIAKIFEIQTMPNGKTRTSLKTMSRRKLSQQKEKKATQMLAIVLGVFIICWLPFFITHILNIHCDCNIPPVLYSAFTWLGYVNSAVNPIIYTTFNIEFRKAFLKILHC

As to `O=C(NCCN1CCC(c2cccc(C(F)(F)F)n2)CC1)C1CCOCC1` [Example 11, N-(2-{4-[6-(Trifluoromethyl)pyridin-2-yl]piperidin-1-yl}ethyl)-tetrahydro-2H-pyran-4-carboxamide], the “Metabolic stability of human liver microsome” value (from here on “Metabolic stability”) in data set [1] came to 0.0075 mL/min/mg protein. Besides, in the data set with Wistar male rat, the “effect on serotonin content” value is recorded as “did not decrease the serotonin content”.

For `Cc1cccc(C2CCN(CCNC(=O)C3CCCCO3)CC2)n1` (stereo not shown) [Example 20], the figures for the Emax at human 5-HT1A receptor [2] (setting [7]) and at human D4 receptor [3] (setting [7]) were 40% and 60%, respectively. For the same molecule, the EC50 (as a rule, the concentration that produces a half-maximal response) on human 5-HT1A receptor [2] came out at 57 nM; on human D4 receptor [3], 15 nM. For the same molecule, the Ki (usually the equilibrium dissociation constant of an inhibitor or competing ligand from its target) on human 5-HT1A receptor [4] was 6.8 nM; at human D4 receptor [5], 92 nM; on human D2 receptor, above 10 µM. Moreover, in data set [6], the “Metabolic stability” value is given as below 0.05 mL/min/mg protein. Besides, at hERG channel, the IC50 (commonly the concentration needed to halve the response being measured) is above 10 µM.

As for `O=C(NCCN1CCC(c2cccc(C(F)(F)F)n2)CC1)C1CCOC1` (stereo not shown) [Example 25], the “5-HT1A agonistic activity Emax” value on human 5-HT1A receptor [2] (setting [8]) stood at 46%. Also, the EC50 is 67 nM at human 5-HT1A receptor [2] and 30 nM at human D4 receptor [3]. In addition, the “D4 agonistic activity Emax” value at human D4 receptor [3] (setting [8]) is listed as 49%. The Ki at human 5-HT1A receptor [4] was found to be 20 nM; at human D2 receptor it was 3.33 µM. The “Metabolic stability” value in data set [6] is listed as below 0.05 mL/min/mg protein. Further, at hERG channel, the IC50 is above 10 µM.

For the origin of these results see US11014905B2, “2,6-disubstituted pyridine derivative” (Sumitomo Dainippon Pharma Co., Ltd., priority 2017, dated 2021).
